Test results taken from ChEMBL document CHEMBL5260848, “Recent advancements in the development of bioactive pyrazoline derivatives” (Eur J Med Chem, 2020).
In brackets after ≈: the same amount, converted by molar mass.

Legend:
[1] = test system: MCF7; assay: cells; settings: Homo sapiens
[2] = test system: HepG2; assay: Cytotoxicity against human HepG2 cells assessed as growth inhibition; format: functional, cell-based
[3] = test system: Staphylococcus epidermidis; assay: Antibacterial activity against Staphylococcus epidermidis ATCC 12228 by plate dilution method; format: functional
[4] = test system: Staphylococcus aureus; assay: Antibacterial activity against Staphylococcus aureus ATCC 25923 by plate dilution method; format: functional
[5] = test system: Bordetella bronchiseptica; assay: Antibacterial activity against Bordetella bronchiseptica ATCC 4617 by plate dilution method; format: functional
[6] = test system: Proteus vulgaris; assay: Antibacterial activity against Proteus vulgaris ATCC 9920 by plate dilution method; format: functional
[7] = test system: Pseudomonas aeruginosa; assay: Antibacterial activity against Pseudomonas aeruginosa ATCC 27853 by plate dilution method; format: functional
[8] = test system: Bacillus subtilis; assay: Antibacterial activity against Bacillus subtilis ATCC 6633 by plate dilution method; format: functional
[9] = test system: Escherichia coli; assay: Antibacterial activity against Escherichia coli ATCC 25922 by plate dilution method; format: functional
[10] = test system: Enterococcus faecalis; assay: Antibacterial activity against Enterococcus faecalis ATCC 29212 by plate dilution method; format: functional
[11] = test system: Bacillus cereus; assay: Antibacterial activity against Bacillus cereus ATCC 9946 by plate dilution method; format: functional
[12] = test system: Klebsiella pneumoniae; assay: Antibacterial activity against Klebsiella pneumoniae ATCC 700603 by plate dilution method; format: functional
[13] = test system: Plasmodium falciparum; assay: Antimalarial activity against chloroquine-sensitive Plasmodium falciparum 3D7; format: functional, organism-based
[14] = test system: Mycobacterium tuberculosis; assay: microbe, parasite or virus in culture; settings: 120 h
[15] = test system: Mycobacterium tuberculosis; assay: Antimycobacterial activity against Mycobacterium tuberculosis; format: functional
[16] = test system: Pseudomonas aeruginosa; assay: Potency index, ratio of ampicillin MIC to compound MIC for Pseudomonas aeruginosa by agar dilution method; format: functional
[17] = test system: Candida albicans; assay: Antifungal activity against Candida albicans by agar dilution method; format: functional
[18] = test system: HepG2; assay: Cytotoxicity against human HepG2 cells; format: functional, cell-based
[19] = test system: RAW264.7; assay: Cytotoxicity against mouse RAW264.7 cells relative to control; format: functional
[20] = test system: RAW264.7; assay: Antiinflammatory activity in LPS-induced mouse RAW264.7 cells assessed as inhibition of LPS induced NO production; format: functional, cell-based
[21] = test system: Rattus norvegicus; assay: Antiinflammatory activity in carrageenan induced rat paw edema model assessed inhibition of TNF-alpha level; format: functional, organism-based
[22] = test system: Aspergillus niger; assay: Antifungal activity against Aspergillus niger by agar dilution method; format: functional
[23] = test system: Plasmodium berghei; assay: Antimalarial activity against Plasmodium berghei infected in mouse assessed as suppression percentage at 48.46 umol/kg administered daily relative to control; format: functional; settings: dose 48.46 µmol/kg
[24] = test system: A549; assay: Cytotoxicity against human A549 cells assessed as reduction in cell viability; format: functional, cell-based
[25] = test system: Pseudomonas aeruginosa; assay: Antibacterial activity against Pseudomonas aeruginosa by agar dilution method; format: functional
[26] = test system: Bacillus subtilis; assay: Antibacterial activity against Bacillus subtilis by agar dilution method; format: functional
[27] = test system: Staphylococcus aureus; assay: Antibacterial activity against Staphylococcus aureus by agar dilution method; format: functional
[28] = test system: Escherichia coli; assay: Antibacterial activity against Escherichia coli by agar dilution method; format: functional
[29] = test system: Escherichia coli; assay: Potency index, ratio of ampicillin MIC to compound MIC for Escherichia coli by agar dilution method; format: functional
[30] = test system: HepG2; assay: Cytotoxicity against human HepG2 cells assessed as reduction in cell viability; format: functional, cell-based
[31] = test system: HeLa; assay: Cytotoxicity against human HeLa cells assessed as reduction in cell viability; format: functional, cell-based
[32] = species: Mus musculus; assay: Antidepressant activity in mouse assessed as […] by forced swimming test; format: functional
[33] = species: Mus musculus; assay: Antidepressant activity in mouse assessed as […] by tail suspension test; format: functional
[34] = species: Mus musculus; assay: Antianxiety activity in mouse assessed as increase in number of entries in different arms; format: functional
[35] = test system: HepG2; assay: Cytotoxicity against human HepG2 cells by SRB assay; format: functional

CNC(=S)N1N=C(c2nnn(-c3ccc(-n4nnc(C5=NN(C(=S)NC)C(c6ccccc6)C5)c4C)cc3)c2C)CC1c1ccccc1 (stereo not given)
IC50 [1]: 32.3 µg/mL (≈ 47.8 µM)

O=C1N=C(N2N=C(c3cccs3)CC2c2cc(Cl)ccc2Cl)S/C1=N/Nc1ccc(Cl)cc1 (stereo not given)
IC50 [2]: 3.54 µM

O=c1oc2ccc(F)cc2cc1-c1csc(N2N=C(c3ccccc3F)CC2c2cc3ccccc3nc2Cl)n1 (stereo not given)
MIC [3]: 50 µg/mL (≈ 87.6 µM)
MIC [4]: 50 µg/mL (≈ 87.6 µM)
MIC [5]: 50 µg/mL (≈ 87.6 µM)
MIC [6]: 50 µg/mL (≈ 87.6 µM)
MIC [7]: 50 µg/mL (≈ 87.6 µM)
MIC [8]: 50 µg/mL (≈ 87.6 µM)
MIC [9]: 50 µg/mL (≈ 87.6 µM)
MIC [10]: 50 µg/mL (≈ 87.6 µM)
MIC [11]: 50 µg/mL (≈ 87.6 µM)
MIC [12]: 50 µg/mL (≈ 87.6 µM)

COc1cc(C2CC(c3cc4ccccc4oc3=O)=NN2C(=O)c2ccncc2)cc(OC)c1OC (stereo not given)
IC50 [13]: 9.68 µg/mL (≈ 19.9 µM)

COc1ccc2c(c1)C1=NN(CCCN(C)C)C3=CC=C([N+](=O)[O-])C(N2)C31 (stereo not given)
MIC [14]: 3.12 µg/mL (≈ 8.46 µM)
MIC [15]: 3.12 µg/mL (≈ 8.45 µM)

Cc1cccc2cc(C3CC(c4cc(Br)ccc4O)=NN3)c3nnnn3c12 (stereo not given)
Ratio [16]: 2
MIC [17]: 25 µg/mL (≈ 59.1 µM)

CN(C)c1ccc(C2CC(c3c4ccccc4cc4ccccc34)=NN2c2nc(-c3ccc(F)cc3)c(C#N)c(=O)[nH]2)cc1 (stereo not given)
IC50 [18]: 4.21 µg/mL (≈ 7.28 µM)

C[C@]12CC[C@H]3[C@@H](CC=C4C[C@@H](O)CC[C@@]43C)[C@@H]1CC[C@@H]2C1=NN(C(N)=S)C(c2ccccc2Cl)C1 (stereo not given in full)
Activity [19]: >90%
IC50 [20]: 0.86 µM

Cc1ccc(/C=C/C2=NN(c3ccccc3)C(c3ccc(C)s3)C2)s1 (stereo not given)
IC50 [21]: 0.0017 µM

COc1cccc2cc(C3CC(c4cc(Br)ccc4O)=NO3)c3nnnn3c12 (stereo not given)
MIC [22]: 25 µg/mL (≈ 56.8 µM)
MIC [17]: 25 µg/mL (≈ 56.8 µM)

COc1cccc2cc(C3CC(c4cc(Br)ccc4O)=NN3)c3nnnn3c12 (stereo not given)
Ratio [16]: 2

Cc1ccc(-c2nn(-c3ccccc3)cc2C2CC(c3cccs3)=NN2)cc1 (stereo not given)
Activity [23]: 63.4%

COc1cc(C2CC(c3ccc(Br)cc3)=NN2C(N)=S)cc(Br)c1O (stereo not given)
IC50 [24]: 51 µM

Clc1ccc(-c2csc(N3N=C(c4cccs4)CC3c3ccc(Cl)cc3Cl)n2)cc1 (stereo not given)
IC50 [2]: 2.98 µM

Oc1ccc(Br)cc1C1=NNC(c2cc3ccccc3n3nnnc23)C1 (stereo not given)
MIC [25]: 50 µg/mL (≈ 122 µM)
MIC [26]: 25 µg/mL (≈ 61.1 µM)
MIC [27]: 25 µg/mL (≈ 61.1 µM)
MIC [28]: 50 µg/mL (≈ 122 µM)
Ratio [16]: 2
Ratio [29]: 2

COc1cc(C2CC(c3ccc(F)cc3)=NN2C(N)=S)cc(OC)c1OC (stereo not given)
IC50 [30]: 6.78 µM
IC50 [31]: 7.63 µM

CN[C@@H]1[C@H](O[C@H]2[C@H](O[C@H]3[C@H](O)[C@@H](O)[C@H](N=C(N)N)[C@@H](O)[C@@H]3N=C(N)N)O[C@@H](C)[C@]2(O)C=O)O[C@@H](CO)[C@H](O)[C@H]1O [STREPTOMYCIN]
MIC [14]: 6.25 µg/mL (≈ 10.7 µM)
MIC [15]: 6.25 µg/mL (≈ 10.7 µM)

Oc1ccc(C2=NNC(c3ccc(Cl)cc3)C2)cc1 (stereo not given)
Time [32]: 21.17 s
Time [33]: 21.17 s
Activity [34]: 17.67

COc1ccc(C2CC(c3cc(OC)c(OC)c(OC)c3)=NN2C(C)=O)cc1OCc1cn(Cc2ccc(F)cc2)nn1 (stereo not given)
GI50 [35]: 6.7 µM

Cc1ccc2c(c1)cc(C1CC(c3cc(Br)ccc3O)=NN1)c1nnnn12 (stereo not given)
MIC [22]: 25 µg/mL (≈ 59.1 µM)

COc1ccc(C2CC(c3ccc(O)cc3)=NN2)cc1OC (stereo not given)
Time [32]: 21.17 s
Time [33]: 21.17 s
Activity [34]: 15.5
